# In US20220119375A1, “3-ARYLOXY-3-ARYL-PROPYLAMINE COMPOUND AND USES THEREOF” (Zhangzhou Pien Tze Huang Pharmaceutical Co., Ltd., priority 2018, published 2022):
# Tested on: C57BL/6 mice, ICS model
# Experiment: mice ICS model (fibromyalgia), mechanical allodynia test
# Format: in vivo, mouse
# Conditions: 10 mg/kg oral
# Protocol: After completely dissolved, the duloxetine was administered orally. The volume of administration was 5 ml/kg.
# 10 mg/kg compound Ic-1:17 mg of compound Ic-1 was weighed, dissolved in saline and diluted to 8.5 mL. After completely dissolved, the compound Ic-1 was administered orally. The volume of administration was 5 ml/kg.
# Male C57BL/6 mice weighed 18-22 g were selected at the beginning of experiment. Each cage had 4 mice which were allowed to feed and drink water freely. Each experimental group had 12 mice, and the experimental mice were labeled by tail labeling method.
# Day 0: At 4:30 pm, the mice were put in a plexiglass box with stainless steel mesh, and then the plexiglass box was put in cold environment (4±2° C.) overnight. The mice were allowed to feed freely and drink, and agar was used to replace water.
# Day 1: At 10:00 am, the mice were delivered to room temperature (24±2° C.) environment for 30 min, and then the mice were delivered to cold environment for 30 min. The above steps were repeated until 4:[…], and the mice were put in cold environment overnight.
# Day 2: the operation on day 1 was repeated.
# Day 3: the mice were taken out from cold environment at 10:00 am.
# The compounds were administered orally according to the schedule of experiment, and the dosage was 10 mg/kg.
# On the fourth day after modeling, the pre-administration mechanical allodynia test was performed on the animals. Animals with PWT value greater than 0.5 g were excluded and were not used for experiments. On the fifth day after modeling, the animals were tested for mechanical allodynia at 0.5 h, 1 h, and 2 h after the administration of compounds. […]
# During the test, rapid withdrawal of animal claw was recorded as pain response. When the test fiber was removed from animal skin, the withdrawal of animal claw was also recorded as pain response. If animal moved, the pain response was not recorded, and the test was repeated. […] The maximum strength of tested fiber was 4.17 (1.4 g). • The test results were recorded in Table 4 below, wherein pain response was recorded as X and no pain response was recorded as O. […]
smiles,measurement,setting,value
"CNCC[C@H](Oc1cccc2ccccc12)c1cccs1 [Duloxetine (S configuration), Duloxetine]",PWT (g) Mean ± SD,0.5 h after administration,0.416 ± 0.140 g
same,PWT (g) Mean ± SD,1 h after administration,0.648 ± 0.155 g
same,PWT (g) Mean ± SD,2 h after administration,0.530 ± 0.235 g
